#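 Compound exposure: 48 hours, 5 concentrations, 96-well plates. GI50 is the concentration that inhibits growth by half.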 The source made the active and inactive calls. Cut-off read from the data, not from the text of the source: active = GI50 up to about 1.1 µM and inactive = higher.
# Experiments:
# Assay in all cases: DTP human tumour cell line panel, 48 h
# 786-0 = test system: 786-0
# A498 = test system: A498
# A549 = test system: A549
# ACHN = test system: ACHN
# CAKI-1 = test system: CAKI-1
# CCRF-CEM = test system: CCRF-CEM
# COLO 205 = test system: COLO 205
# DLD-1 = test system: DLD-1
# DMS-114 = test system: DMS-114
# DMS-273 = test system: DMS-273
# EKVX = test system: EKVX
# HCC 2998 = test system: HCC 2998
# HCT-116 = test system: HCT-116
# HCT-15 = test system: HCT-15
# HL-60 = test system: HL-60
# HOP-18 = test system: HOP-18
# HOP-62 = test system: HOP-62
# HOP-92 = test system: HOP-92
# HT-29 = test system: HT-29
# IGROV-1 = test system: IGROV-1
# K562 = test system: K562
# KM-20L2 = test system: KM-20L2
# KM12 = test system: KM12
# LOX IMVI = test system: LOX IMVI
# LXFL 529 = test system: LXFL 529
# M14 = test system: M14
# M19-MEL = test system: M19-MEL
# MOLT-4 = test system: MOLT-4
# Malme-3M = test system: Malme-3M
# NCI-H226 = test system: NCI-H226
# NCI-H23 = test system: NCI-H23
# NCI-H460 = test system: NCI-H460
# NCI-H522 = test system: NCI-H522
# OVCAR-3 = test system: OVCAR-3
# OVCAR-4 = test system: OVCAR-4
# OVCAR-5 = test system: OVCAR-5
# OVCAR-8 = test system: OVCAR-8
# RPMI-8226 = test system: RPMI-8226
# RXF 393 = test system: RXF 393
# RXF 631 = test system: RXF 631
# SF-268 = test system: SF-268
# SF-295 = test system: SF-295
# SF-539 = test system: SF-539
# SK-MEL-28 = test system: SK-MEL-28
# SK-MEL-2 = test system: SK-MEL-2
# SK-MEL-5 = test system: SK-MEL-5
# SK-OV-3 = test system: SK-OV-3
# SN12C = test system: SN12C
# SNB-19 = test system: SNB-19
# SNB-75 = test system: SNB-75
# SW-620 = test system: SW-620
# TK-10 = test system: TK-10
# U-251 = test system: U-251
# UACC-257 = test system: UACC-257
# UACC-62 = test system: UACC-62
# UO-31 = test system: UO-31
# SNB-78 = test system: SNB-78
# XF498 = test system: XF498
smiles,measurement,setting,value
COc1cc([C@@H]2c3cc4c(cc3[C@@H](NCc3cccc(C#N)c3)C3COC(=O)[C@@H]32)OCO4)cc(OC)c1O (some centres undefined),GI50,786-0,1.02 µM (active)
same,GI50,A498,1.43 µM (inactive)
same,GI50,A549,0.0815 µM (active)
same,GI50,ACHN,0.305 µM (active)
same,GI50,CAKI-1,1 µM (active)
same,GI50,CCRF-CEM,0.224 µM (active)
same,GI50,COLO 205,2.99 µM (inactive)
same,GI50,DLD-1,1.7 µM (inactive)
same,GI50,DMS-114,1.87 µM (inactive)
same,GI50,DMS-273,0.349 µM (active)
same,GI50,EKVX,2.39 µM (inactive)
same,GI50,HCC 2998,1.48 µM (inactive)
same,GI50,HCT-116,2.12 µM (inactive)
same,GI50,HCT-15,1.17 µM
same,GI50,HL-60,0.149 µM (active)
same,GI50,HOP-18,> 100 µM (inactive)
same,GI50,HOP-62,0.439 µM (active)
same,GI50,HOP-92,1.32 µM (inactive)
same,GI50,HT-29,1.48 µM (inactive)
same,GI50,IGROV-1,1.03 µM (active)
same,GI50,K562,1.83 µM (inactive)
same,GI50,KM-20L2,1.58 µM (inactive)
same,GI50,KM12,1.62 µM (inactive)
same,GI50,LOX IMVI,1.27 µM (inactive)
same,GI50,LXFL 529,5.9 µM (inactive)
same,GI50,M14,1.64 µM (inactive)
same,GI50,M19-MEL,5.7 µM (inactive)
same,GI50,MOLT-4,0.0386 µM (active)
same,GI50,Malme-3M,2.18 µM (inactive)
same,GI50,NCI-H226,0.225 µM (active)
same,GI50,NCI-H23,0.428 µM (active)
same,GI50,NCI-H460,0.0356 µM (active)
same,GI50,NCI-H522,1.46 µM (inactive)
same,GI50,OVCAR-3,2.57 µM (inactive)
same,GI50,OVCAR-4,68.7 µM (inactive)
same,GI50,OVCAR-5,2.84 µM (inactive)
same,GI50,OVCAR-8,1.43 µM (inactive)
same,GI50,RPMI-8226,1.2 µM (inactive)
same,GI50,RXF 393,2.34 µM (inactive)
same,GI50,RXF 631,1.29 µM (inactive)
same,GI50,SF-268,2.22 µM (inactive)
same,GI50,SF-295,0.925 µM (active)
same,GI50,SF-539,0.326 µM (active)
same,GI50,SK-MEL-28,3.32 µM (inactive)
same,GI50,SK-MEL-2,3.77 µM (inactive)
same,GI50,SK-MEL-5,2.02 µM (inactive)
same,GI50,SK-OV-3,1.53 µM (inactive)
same,GI50,SN12C,0.448 µM (active)
same,GI50,SNB-19,1.1 µM (active)
same,GI50,SNB-75,1.06 µM (active)
same,GI50,SW-620,0.646 µM (active)
same,GI50,TK-10,2.39 µM (inactive)
same,GI50,U-251,0.303 µM (active)
same,GI50,UACC-257,6.64 µM (inactive)
same,GI50,UACC-62,0.524 µM (active)
same,GI50,UO-31,2.22 µM (inactive)
N#CC(C(=O)CCC(=O)Nc1cccc(C(F)(F)F)c1)c1ccc(Cl)cc1 (centres undefined),GI50,786-0,> 100 µM (inactive)
same,GI50,A498,> 100 µM (inactive)
same,GI50,A549,> 100 µM (inactive)
same,GI50,ACHN,> 100 µM (inactive)
same,GI50,CAKI-1,> 100 µM (inactive)
same,GI50,CCRF-CEM,> 100 µM (inactive)
same,GI50,COLO 205,> 100 µM (inactive)
same,GI50,DLD-1,> 100 µM (inactive)
same,GI50,DMS-273,> 100 µM (inactive)
same,GI50,EKVX,> 100 µM (inactive)
same,GI50,HCC 2998,> 100 µM (inactive)
same,GI50,HCT-116,> 100 µM (inactive)
same,GI50,HCT-15,> 100 µM
same,GI50,HL-60,> 100 µM (inactive)
same,GI50,HOP-18,> 100 µM (inactive)
same,GI50,HOP-62,> 100 µM (inactive)
same,GI50,HOP-92,> 100 µM (inactive)
same,GI50,HT-29,> 100 µM (inactive)
same,GI50,IGROV-1,> 100 µM (inactive)
same,GI50,K562,> 100 µM (inactive)
same,GI50,KM-20L2,> 100 µM (inactive)
same,GI50,KM12,> 100 µM (inactive)
same,GI50,LOX IMVI,> 100 µM (inactive)
same,GI50,LXFL 529,> 100 µM (inactive)
same,GI50,M14,> 100 µM (inactive)
same,GI50,M19-MEL,> 100 µM (inactive)
same,GI50,MOLT-4,> 100 µM (inactive)
same,GI50,Malme-3M,> 100 µM (inactive)
same,GI50,NCI-H226,> 100 µM (inactive)
same,GI50,NCI-H23,> 100 µM (inactive)
same,GI50,NCI-H460,> 100 µM (inactive)
same,GI50,NCI-H522,> 100 µM (inactive)
same,GI50,OVCAR-3,> 100 µM (inactive)
same,GI50,OVCAR-4,> 100 µM (inactive)
same,GI50,OVCAR-5,> 100 µM (inactive)
same,GI50,OVCAR-8,> 100 µM (inactive)
same,GI50,RPMI-8226,> 100 µM (inactive)
same,GI50,RXF 631,> 100 µM (inactive)
same,GI50,SF-268,> 100 µM (inactive)
same,GI50,SF-295,> 100 µM (inactive)
same,GI50,SF-539,> 100 µM (inactive)
same,GI50,SK-MEL-5,> 100 µM (inactive)
same,GI50,SK-OV-3,> 100 µM (inactive)
same,GI50,SN12C,> 100 µM (inactive)
same,GI50,SNB-19,> 100 µM (inactive)
same,GI50,SNB-78,> 100 µM (inactive)
same,GI50,SW-620,> 100 µM (inactive)
same,GI50,TK-10,> 100 µM (inactive)
same,GI50,U-251,> 100 µM (inactive)
same,GI50,UACC-257,> 100 µM (inactive)
same,GI50,UACC-62,> 100 µM (inactive)
same,GI50,UO-31,> 100 µM (inactive)
same,GI50,XF498,> 100 µM (inactive)
